23 compounds from patent US12370263B2, “Cyclic dinucleotide derivative based antibody-drug conjugates” (DAIICHI SANKYO COMPANY, LIMITED, priority 2018, dated 2025) can be followed below.

As a reminder, the ΔTm is the shift of the melting midpoint relative to a reference. What is called EC50 is the concentration at which the effect is half-maximal.

Test [1] has as its target T1, HisAviTEV-hSTING (139-342) human wild-type protein (Homo sapiens, UniProt Q86WV6, H232R).
T1 construct: made in house; host or cells: E. coli Rosetta 2 (DE3), co-expressed with BirA (1-321)
In words: Protein thermal shift assay, STING C-terminal binding domain protein. The note with it: test compound final concentration 0.5 mM.

Test [2] addresses T2, HisAviTEV-hSTING (139-342) human REF-mutated protein (Homo sapiens, UniProt Q86WV6).
T2 construct: made in house; host or cells: E. coli Rosetta 2 (DE3), co-expressed with BirA (1-321)
Described as above. As to conditions: test compound final concentration 0.5 mM.

Test [3] deals with T3, HisAviTEV-hSTING (139-342) human AQ-mutated protein (Homo sapiens, UniProt Q86WV6, G230A/H232R/R293Q).
T3 construct: made in house; host or cells: E. coli Rosetta 2 (DE3), co-expressed with BirA (1-321)
Described as above. The note with it: test compound final concentration 0.5 mM.

Test [4] deals with T4, His-Avi-TEV-mSTING (138-341) mouse wild-type protein (Mus musculus, UniProt Q3TBT3).
T4 construct: made in house; host or cells: E. coli Rosetta 2 (DE3), co-expressed with BirA (1-321)
The test is described as above. As to conditions: test compound final concentration 0.5 mM. As to the method: Each of these expression strains was added to a TB medium containing 100 μg/mL ampicillin, 50 μg/mL streptomycin, and 30 μg/mL kanamycin, cultured at 37° C., then exposed to 100 μM IPTG for inducible expression, and further cultured at 16° C.
The culture solution was centrifuged, and the resulting bacterial cells were suspended in 50 mM HEPES pH 8.0, 500 mM NaCl, 20 mM imidazole, 1 mM DTT, 5% (w/v) glycerol, Complete EDTA free, and then subjected to freeze-thawing. After addition of Lysozyme and DNase I, proteins were extracted by ultrasonic disintegration, and centrifugation was performed and the resulting supernatant was collected. The supernatant obtained was purified by using an AKTA express chromatography system (GE Healthcare, IL, US) with a HisTrap FF column (GE Healthcare), and eluted with buffer (20 mM HEPES pH 7.5, 120 mM NaCl, 20% Glycerol, 0.8 mM DTT) through a Superdex 200 16/60 column (GE Healthcare). […] The protein concentrations were measured by using a NanoDrop2000 (Thermo Fisher Scientific, MA, US), and the proteins were cryopreserved at −80° C. until use.
The binding ability of each compound to the STING C-terminal binding domain proteins was evaluated by protein thermal shift assay, which uses the elevation of thermal denaturation temperature of protein as an index.
Specifically, 3 μL of a test compound (final concentration: 0.5 mM), 3 μL of SYPRO Orange Protein Gel Stain (Thermo Fisher Scientific) (final concentration: 20-fold), and 6 μL of a STING protein were mixed with use of assay buffer (20 mM Tris-HCl pH 7.5, 120 mM NaCl) in a 384-well real-time PCR plate, and mixed together with a plate shaker. With a real-time PCR system (Thermo Fisher Scientific), the temperature was increased from 25° C. to 95° C. at a rate of 0.03° C./sec, and the thermal denaturation temperature of the protein was measured by using fluorescence emitted from SYPRO Orange as an index. From the measurement acquired, Tm (the midpoint of the unfolding transition) (° C.) was determined as a temperature at which the increase rate of fluorescence intensity was maximized by using the analysis software Protein Thermal Shift software (Thermo Fisher Scientific). The Tm value for a well with no compound was subtracted from the Tm value for each test compound to calculate the Tm shift caused by the compound as ΔTm (° C.).

For a further test, the target named is Human STING (Homo sapiens, UniProt Q86WV6, G230A/H232R/R293Q/R71H). In words: Reporter gene assay, human STING agonist activity, THP1-Dual cells (HAQ-mutated), IRF pathway. As to conditions: 24 hours, 100% = maximum count with ML-RR-CDA·2Na+.
Setting [5] is: THP1-Dual cells IRF EC50, THP1-Dual cells (HAQ-mutated).
Setting [6] is: read-out: THP1-Dual cells IRF EC50, THP1-Dual cells (HAQ-mutated).

Where two headings read alike, the source gives them in different places.

T2 sequence (Q86WV6 with tags, fused parts or gaps, change not shown): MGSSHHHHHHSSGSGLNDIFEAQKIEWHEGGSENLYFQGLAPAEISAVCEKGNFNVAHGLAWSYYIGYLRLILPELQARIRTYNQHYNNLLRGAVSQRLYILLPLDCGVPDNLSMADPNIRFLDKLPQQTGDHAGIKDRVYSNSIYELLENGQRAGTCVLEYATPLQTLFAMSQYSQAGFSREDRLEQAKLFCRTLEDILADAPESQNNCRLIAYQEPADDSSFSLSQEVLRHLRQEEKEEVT
Chain of Human STING (Q86WV6 whole entry R71H/G230A/H232R/R293Q): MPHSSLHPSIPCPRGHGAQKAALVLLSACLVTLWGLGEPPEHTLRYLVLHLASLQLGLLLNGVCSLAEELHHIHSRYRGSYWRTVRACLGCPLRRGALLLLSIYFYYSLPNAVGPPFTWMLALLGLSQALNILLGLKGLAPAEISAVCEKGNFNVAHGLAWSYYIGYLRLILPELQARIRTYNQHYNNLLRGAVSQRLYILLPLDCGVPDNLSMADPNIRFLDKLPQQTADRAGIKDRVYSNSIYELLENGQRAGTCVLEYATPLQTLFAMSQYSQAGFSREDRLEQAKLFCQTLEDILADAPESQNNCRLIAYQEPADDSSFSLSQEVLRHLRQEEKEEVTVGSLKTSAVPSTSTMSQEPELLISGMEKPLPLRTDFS
T4 sequence (Q3TBT3 with tags, fused parts or gaps limits assumed): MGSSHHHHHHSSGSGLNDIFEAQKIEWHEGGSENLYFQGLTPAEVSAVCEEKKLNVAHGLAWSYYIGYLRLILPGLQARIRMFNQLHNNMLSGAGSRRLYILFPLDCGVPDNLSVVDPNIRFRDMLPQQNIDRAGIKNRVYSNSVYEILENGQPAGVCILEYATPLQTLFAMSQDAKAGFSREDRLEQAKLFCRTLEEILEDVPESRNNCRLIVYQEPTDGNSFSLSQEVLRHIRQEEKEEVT
T3 sequence (Q86WV6 with tags, fused parts or gaps G230A/H232R/R293Q): as the sequence (Q86WV6 with tags, fused parts or gaps, change not shown) above, with G131A, H133R, R194Q counted along it
T1 sequence (Q86WV6 with tags, fused parts or gaps H232R): as the sequence (Q86WV6 with tags, fused parts or gaps, change not shown) above, with H133R counted along it

Turning to `Nc1ncnc2c1ncn2[C@@H]1O[C@@H]2COP(=O)(S)O[C@H]3[C@@H](O)[C@H](n4cc5c6c(ncnc64)NCCC5)O[C@@H]3COP(=O)(S)O[C@@H]1[C@@H]2O` (single isomer, unassigned) [1a], the thermal shift (ΔTm) at 500 µM in test [1] is 8.4 °C; in test [2], 3.4 °C; in test [3], 12 °C; in test [4], 14.3 °C. Also, the concentration for a half-maximal effect (EC50) on Human STING (setting [5]) was determined as 5900 nM.
For `Nc1nc2c(ncn2[C@@H]2O[C@@H]3COP(=O)(S)O[C@H]4[C@@H](O)[C@H](n5cc6c7c(ncnc75)NCCC6)O[C@@H]4COP(=O)(S)O[C@@H]2[C@@H]3O)c(=O)[nH]1` (single isomer, unassigned) [4a] the same measures were 11.5 °C, 5.2 °C, 17 °C, 17.5 °C and 2100 nM.
Consider `Nc1nc2c(ncn2[C@@H]2O[C@@H]3COP(=O)(S)O[C@H]4[C@@H](O)[C@H](n5cc6c7c(ncnc75)NCCC6)O[C@@H]4COP(=O)(S)O[C@@H]2[C@@H]3O)c(=O)[nH]1` (single isomer, unassigned) [4b], for which the “ΔTm Hu-WT” value in test [1] came to 9.8 °C. In addition, the “ΔTm Hu-REF” value in test [2] is 3.5 °C. Moreover, the “ΔTm Hu-AQ” value in test [3] turned out to be 13.1 °C. In addition, the “ΔTm Ms-WT” value in test [4] is 14.9 °C. The same compound had an EC50 at Human STING (setting [5]) of 1500 nM.
With `Nc1nc(CO)nc2c1ncn2[C@@H]1O[C@@H]2COP(=O)(S)O[C@H]3[C@@H](O)[C@H](n4cc5c6c(ncnc64)NCCC5)O[C@@H]3COP(=O)(S)O[C@@H]1[C@@H]2O` (single isomer, unassigned) [12a], the ΔTm at 500 µM was 8 °C in test [1], 3 °C in test [2], 9.6 °C in test [3] and 11.9 °C in test [4].
The corresponding values for `Nc1ncnc2c1ncn2[C@@H]1O[C@@H]2COP(=O)(S)O[C@H]3[C@@H](O)[C@H](n4cc5c6c(ncnc64)OCCC5)O[C@@H]3COP(=O)(S)O[C@@H]1[C@@H]2O` (single isomer, unassigned) [20a] are 7.5 °C, 3.7 °C, 9.7 °C and 12.4 °C.
Compound `O=c1c2ncn([C@@H]3O[C@@H]4COP(=O)(S)O[C@H]5[C@H](F)[C@H](n6cc7c8c(ncnc86)NCCC7)O[C@@H]5COP(=O)(S)O[C@@H]3[C@@H]4O)c2ncn1CCO` (single isomer, unassigned) [33a] showed an EC50 on Human STING (setting [5]) of 180 nM.
Same read-out and setting: in the case of `O=c1c2ncn([C@@H]3O[C@@H]4COP(=O)(S)O[C@H]5[C@@H](F)[C@H](n6cc7c8c(ncnc86)NCCC7)O[C@@H]5COP(=O)(S)O[C@@H]3[C@@H]4O)c2ncn1CCO` (single isomer, unassigned) [34b] it was 550 nM; in that of `O=c1c2ncn([C@@H]3O[C@@H]4COP(=O)(S)O[C@H]5[C@@H](O)[C@H](n6cc7c8c(ncnc86)NCCC7)O[C@@H]5COP(=O)(S)O[C@@H]3C4)c2ncn1CCO` (single isomer, unassigned) [38a], 450 nM; in that of `O=c1c2ncn([C@@H]3O[C@@H]4COP(=O)(S)O[C@H]5[C@@H](O)[C@H](n6cc7c8c(ncnc86)NCCC7)O[C@@H]5COP(=O)(S)O[C@@H]3C4)c2ncn1CCO` (single isomer, unassigned) [38b], 1600 nM.
The same measure, in the same setting: the result for `O=c1c2ncn([C@@H]3O[C@@H]4COP(=O)(S)O[C@H]5[C@@H](O)[C@H](n6cc7c8c(ncnc86)NCCC7)O[C@@H]5COP(=O)(S)O[C@@H]3[C@@H]4F)c2ncn1CCO` (single isomer, unassigned) [39b] reads 410 nM; that for `NCCn1cnc2c(ncn2[C@@H]2O[C@@H]3COP(=O)(S)O[C@H]4[C@@H](O)[C@H](n5cc6c7c(ncnc75)NCCC6)O[C@@H]4COP(=O)(S)O[C@@H]2[C@@H]3F)c1=O` (single isomer, unassigned) [40a], 3400 nM; that for `NCCn1cnc2c(ncn2[C@@H]2O[C@@H]3COP(=O)(S)O[C@H]4[C@@H](O)[C@H](n5cc6c7c(ncnc75)NCCC6)O[C@@H]4COP(=O)(S)O[C@@H]2[C@@H]3F)c1=O` (single isomer, unassigned) [40b], 3200 nM.
The compound `O=C(CO)NCCn1cnc2c(ncn2[C@@H]2O[C@@H]3COP(=O)(S)O[C@H]4[C@@H](O)[C@H](n5cc6c7c(ncnc75)NCCC6)O[C@@H]4COP(=O)(S)O[C@@H]2[C@@H]3F)c1=O` (single isomer, unassigned) [41a] yielded a 50% effective concentration (EC50) at Human STING (setting [5]) of 1100 nM.
On the same count and under the same terms, the result for `O=C(CO)NCCn1cnc2c(ncn2[C@@H]2O[C@@H]3COP(=O)(S)O[C@H]4[C@@H](O)[C@H](n5cc6c7c(ncnc75)NCCC6)O[C@@H]4COP(=O)(S)O[C@@H]2[C@@H]3F)c1=O` (single isomer, unassigned) [41b] reads 3600 nM; that for `O=c1c2ncn([C@@H]3O[C@@H]4COP(=O)(S)O[C@H]5[C@@H](F)[C@H](n6cc7c8c(ncnc86)NCCC7)O[C@@H]5COP(=O)(S)O[C@@H]3[C@@H]4F)c2ncn1CCO` (single isomer, unassigned) [44b], 350 nM.
For the compound `Nc1ncnc2c1ncn2[C@@H]1O[C@@H]2COP(=O)(S)O[C@@H]3[C@@H](COP(=O)(S)O[C@@H]1[C@@H]2O)C[C@@H](n1cc2c4c(ncnc41)NCCC2)[C@@H]3O` (single isomer, unassigned) [46a], at Human STING (setting [6]), the EC50 turned out to be 3900 nM.
Consider `Nc1ncnc2c1ncn2[C@@H]1O[C@@H]2COP(=O)(S)O[C@@H]3[C@@H](COP(=O)(S)O[C@@H]1[C@@H]2O)C[C@@H](n1cc2c4c(ncnc41)NCCC2)[C@@H]3O` (single isomer, unassigned) [46b], for which the half-maximal effective concentration (EC50) on Human STING (setting [6]) was determined as 870 nM.
Turning to `O=c1c2ncn([C@@H]3O[C@@H]4COP(=O)(S)O[C@H]5[C@@H](F)[C@H](n6cc7c8c(ncnc86)SCCC7)O[C@@H]5COP(=O)(S)O[C@@H]3[C@@H]4O)c2ncn1CCO` (single isomer, unassigned) [48b], at Human STING (setting [5]), the EC50 worked out at 39 nM.
Still for that read-out and setting: in the case of `NCCn1cnc2c(ncn2[C@@H]2O[C@@H]3COP(=O)(S)O[C@H]4[C@@H](F)[C@H](n5cc6c7c(ncnc75)SCCC6)O[C@@H]4COP(=O)(S)O[C@@H]2[C@@H]3O)c1=O` (single isomer, unassigned) [49a] it was 330 nM.
As to `O=C(CO)NCCn1cnc2c(ncn2[C@@H]2O[C@@H]3COP(=O)(S)O[C@H]4[C@@H](F)[C@H](n5cc6c7c(ncnc75)SCCC6)O[C@@H]4COP(=O)(S)O[C@@H]2[C@@H]3O)c1=O` (single isomer, unassigned) [50b], the “ΔTm Hu-WT” value in test [1] is 12.3 °C. At Human STING (setting [5]), it took 200 nM to reach a half-maximal effect (EC50).
In turn, `NCCNc1nc(N)c2ncn([C@@H]3O[C@@H]4COP(=O)(S)O[C@H]5[C@@H](F)[C@H](n6cc7c8c(ncnc86)SCCC7)O[C@@H]5COP(=O)(S)O[C@@H]3[C@@H]4F)c2n1` (single isomer, unassigned) [51a] yielded an EC50 on Human STING (setting [5]) of 320 nM.
On the same count and under the same terms, the result for `O=c1c2ncn([C@@H]3O[C@@H]4COP(=O)(O)O[C@H]5[C@@H](F)[C@H](n6cc7c8c(ncnc86)NCCC7)O[C@@H]5COP(=O)(S)O[C@@H]3[C@@H]4O)c2ncn1CCO` (single isomer, unassigned) [52b] reads 460 nM.
The same measure, in the same setting: the result for `Nc1ncnc2c1ncn2[C@@H]1O[C@@H]2COP(=O)(S)O[C@H]3[C@@H](O)[C@H](n4cc5c6c(ncnc64)NCCC5)O[C@@H]3COP(=O)(S)O[C@@H]1[C@@H]2O` (stereo partly drawn) [47a, Disodium (2S,5R,7R,8R,12aR,14R,15R,15aS,16R)-7-(6-amino-9H-purin-9-yl)-15,16-dihydroxy-2-oxo-10-sulfanylidene-14-(6,7,8,9-tetrahydro-2H-2,3,5,6-tetraazabenzo[cd]azulen-2-yl)octahydro-2H,10H,12H-5,8-methano-2λ^5,10λ^5-furo[3,2-1][1,3,6,9,11,2,10]pentaoxadiphosphacyclotetradecine-2,10-bis(thiolate)] reads 580 nM.
